The values that follow come from patent US9855268B2, “Triazolo[4,5-d]pyrimidine derivatives” (Merck Patent GmbH, priority 2013, dated 2018).

For one assay, the target named is GSK3α(h) (Homo sapiens, UniProt P49840). The assay can be described thus: GSK3α radiometric kinase assay (33P-ATP, phospho GS2 peptide). In kind it is biochemical. The settings on record: read-out: IC50 GSK3α (enzyme assay). Put shortly: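 Human GSK3α incubated with 20 μM phospho-GS2 peptide in 8 mM MOPS pH 7,0, 10 mM Mg-acetate and [γ-33P]ATP (concentration as required), started with MgATP. After 40 minutes at room temperature, stopped with phosphoric acid; 33P incorporation measured by filtermat spotting and scintillation counting.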
Sequence of GSK3α(h) (P49840 whole entry): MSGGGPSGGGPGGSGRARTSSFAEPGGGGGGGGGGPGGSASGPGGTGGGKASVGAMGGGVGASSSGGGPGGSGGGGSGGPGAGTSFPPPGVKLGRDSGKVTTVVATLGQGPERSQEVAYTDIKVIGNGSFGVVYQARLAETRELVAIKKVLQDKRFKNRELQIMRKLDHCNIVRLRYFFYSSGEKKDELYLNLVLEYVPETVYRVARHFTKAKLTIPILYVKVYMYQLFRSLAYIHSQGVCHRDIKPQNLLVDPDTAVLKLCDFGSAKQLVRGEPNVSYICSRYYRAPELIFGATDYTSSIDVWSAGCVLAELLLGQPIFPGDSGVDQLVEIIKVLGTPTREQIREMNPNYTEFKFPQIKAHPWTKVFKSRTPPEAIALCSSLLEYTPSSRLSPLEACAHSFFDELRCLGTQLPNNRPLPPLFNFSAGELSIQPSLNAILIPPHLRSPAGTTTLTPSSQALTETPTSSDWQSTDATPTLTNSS

For assay [1], the target named is T1, GCN2 (Homo sapiens, UniProt Q9P2K8). As to the kind of experiment: GCN2 enzyme assay (TR-FRET Lanthascreen, GFP-eIF2alpha phosphorylation). In kind it is biochemical. The settings on record: 10 μM ATP, 80 nM GFP-eIF2a, 30 nM GCN2. Put shortly: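 Phosphorylation of GFP-eIF2alpha (80 nM) by GCN2 run at room temperature with 10 μM ATP. After EDTA quench, product quantified by Lanthascreen TR-FRET (antibody–GFP complex, 340 nm excitation).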
Target sequence in this assay (Q9P2K8 whole entry, species assumed): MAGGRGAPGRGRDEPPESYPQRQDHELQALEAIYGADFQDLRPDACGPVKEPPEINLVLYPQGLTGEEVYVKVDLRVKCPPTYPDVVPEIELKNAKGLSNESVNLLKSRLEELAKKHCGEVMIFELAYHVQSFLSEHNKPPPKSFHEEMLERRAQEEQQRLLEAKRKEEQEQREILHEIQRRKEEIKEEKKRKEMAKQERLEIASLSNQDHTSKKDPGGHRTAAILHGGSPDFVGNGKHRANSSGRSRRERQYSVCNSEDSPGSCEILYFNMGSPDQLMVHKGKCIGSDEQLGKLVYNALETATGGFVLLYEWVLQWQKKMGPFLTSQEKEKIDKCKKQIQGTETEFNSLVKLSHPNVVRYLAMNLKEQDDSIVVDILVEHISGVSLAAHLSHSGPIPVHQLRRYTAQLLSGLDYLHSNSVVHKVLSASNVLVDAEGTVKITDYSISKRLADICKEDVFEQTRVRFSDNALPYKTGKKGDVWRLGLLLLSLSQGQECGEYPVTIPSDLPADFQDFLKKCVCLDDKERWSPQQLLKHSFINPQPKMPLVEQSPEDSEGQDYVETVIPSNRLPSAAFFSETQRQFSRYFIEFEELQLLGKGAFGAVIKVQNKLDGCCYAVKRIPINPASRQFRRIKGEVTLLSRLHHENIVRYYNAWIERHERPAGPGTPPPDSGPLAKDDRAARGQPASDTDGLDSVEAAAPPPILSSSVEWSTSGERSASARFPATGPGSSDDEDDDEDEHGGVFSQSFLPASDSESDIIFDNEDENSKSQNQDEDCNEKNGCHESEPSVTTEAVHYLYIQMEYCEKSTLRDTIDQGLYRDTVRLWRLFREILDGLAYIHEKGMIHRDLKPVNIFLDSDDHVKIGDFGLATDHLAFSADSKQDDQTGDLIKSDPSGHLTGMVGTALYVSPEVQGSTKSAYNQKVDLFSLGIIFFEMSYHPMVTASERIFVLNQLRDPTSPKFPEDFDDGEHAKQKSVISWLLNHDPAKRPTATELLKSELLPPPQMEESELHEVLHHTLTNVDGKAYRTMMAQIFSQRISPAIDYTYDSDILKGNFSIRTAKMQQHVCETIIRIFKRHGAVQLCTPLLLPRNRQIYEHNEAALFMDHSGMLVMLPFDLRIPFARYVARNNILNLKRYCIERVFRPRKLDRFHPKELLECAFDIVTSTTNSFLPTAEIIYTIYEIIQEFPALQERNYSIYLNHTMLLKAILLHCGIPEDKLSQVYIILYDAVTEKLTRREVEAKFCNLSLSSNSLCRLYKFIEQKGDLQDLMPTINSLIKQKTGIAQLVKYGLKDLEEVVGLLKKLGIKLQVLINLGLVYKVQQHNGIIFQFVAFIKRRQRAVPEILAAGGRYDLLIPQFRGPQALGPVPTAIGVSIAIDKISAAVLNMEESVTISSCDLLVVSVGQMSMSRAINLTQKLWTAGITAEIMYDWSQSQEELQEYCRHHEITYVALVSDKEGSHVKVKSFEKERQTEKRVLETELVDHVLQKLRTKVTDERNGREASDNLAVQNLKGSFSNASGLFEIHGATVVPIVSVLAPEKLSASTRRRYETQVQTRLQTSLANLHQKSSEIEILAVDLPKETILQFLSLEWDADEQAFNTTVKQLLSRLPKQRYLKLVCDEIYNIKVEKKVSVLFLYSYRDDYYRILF
In general terms: Time-resolved FRET reads energy transfer from a long-lived donor to a nearby acceptor.

In another assay the target is GSK3β(h) (Homo sapiens, UniProt P49841). As to the kind of experiment: GSK3β radiometric kinase assay (33P-ATP, phospho GS2 peptide). The assay is classed as biochemical. The following applies: read-out: IC50 GSK3β (enzyme assay). As for the experimental part:
GSK3β(h) is incubated with 8 mM MOPS pH 7,0, 0,2 mM EDTA, 20 μM
[…](p)EDEEE (phosphor GS2 peptide), 10 mM Mg-acetate and [gamma-33P-ATP](specific activity approx. 500 cpm/Pmol, concentration as required). The reaction is initiated by the addition of the MgATP. After incubation for 40 minutes at the room temperature, the Reaction is stopped by the addition of 3% phosphoric acid solution. 10 μL of reaction is then spotted onto a P30 filtermat and washed three times for 5 minutes in 50 mM phosphoric acid and once in methanol prior to drying and scintillation counting.

In assay [2] the target is T1, GCN2. The assay can be described thus: Cellular assay of GCN2 activity (phospho-eIF2alpha immunocytochemistry after tryptophanol). In kind it is cell-based. On the set-up: endogenous in cells; host or cells: U2OS. The settings on record: Human U2OS cells, 2 h compound, 600 μM tryptophanol 30 min. The procedure: Cellular Assay for the Determination of Compound Activities
Human U2OS cells (2000 cells/well) are seeded into 384-well plates and incubated for 20 hours.
The next day, the cells are treated with the test compounds and incubated for 2 hours. Then, tryptophanol, at a final concentration of 600 μM, is added to the cells and those are incubated for 30 minutes.
The analysis of cellular GCN2 activities is done by immunocytochemistry.
Briefly, cells are fixated on the well surfaces by formaldehyde and permeabilised with Triton X-100.
The analysis and quantification of phosphorylated GCN2 is done by scanning the plates in the Acumen Explorer system (TTPLabtech). The obtained data are normalised against the untreated control wells (DMSO only) and expressed as % effect values. The determination of IC50 values is done by using the Graph Pad Prism software.
Target sequence in this assay (Q9P2K8 whole entry): as the sequence (Q9P2K8 whole entry, species assumed) above

Sequence of GSK3β(h) (P49841 whole entry): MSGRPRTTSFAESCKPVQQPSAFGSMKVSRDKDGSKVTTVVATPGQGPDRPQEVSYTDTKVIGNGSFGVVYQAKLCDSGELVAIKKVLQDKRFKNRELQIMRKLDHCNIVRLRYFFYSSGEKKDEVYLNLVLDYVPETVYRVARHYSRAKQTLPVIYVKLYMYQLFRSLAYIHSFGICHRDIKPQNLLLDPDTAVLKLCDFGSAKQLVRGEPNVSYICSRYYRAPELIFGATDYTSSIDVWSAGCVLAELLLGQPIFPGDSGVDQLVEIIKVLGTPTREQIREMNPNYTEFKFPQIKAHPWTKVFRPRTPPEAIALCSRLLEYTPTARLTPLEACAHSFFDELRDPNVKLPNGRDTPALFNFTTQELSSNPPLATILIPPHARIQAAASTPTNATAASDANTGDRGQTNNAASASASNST

For orientation: IC50 means the concentration at which inhibition is half-maximal. As for `CCOc1ccc(-n2nnc3cnc(N[C@@H]4CC[C@@H](C(=O)NS(C)(=O)=O)C4)nc32)cc1` [A286, N-{(1R,3R)-3-[3-(4-ethoxy-phenyl)-3H-[1,2,3]triazolo[4,5-d]-pyrimidin-5-ylamino]-cyclopentanecarbonyl}-methanesulfonamide], the IC50 on GSK3α(h), against GCN2 [1] and at GSK3β(h) was below 1000 nM each time.
For `CN1CCN(CCC(=O)N2CC[C@@H](Nc3ncc4nnn(-c5ccc6ncccc6c5)c4n3)C2)CC1` [A133, 3-(4-methyl-piperazin-1-yl)-1-[(R)-3-(3-quinolin-6-yl-3H-[1,2,3]triazolo[4,5-d]pyrimidin-5-ylamino)-pyrrolidin-1-yl]-propan-1-one], the IC50 on GSK3α(h) is below 1000 nM; against GCN2 [1], below 1000 nM; at GSK3β(h) it was 1000 to 5000 nM.
Regarding `Cc1nc2cc(-n3nnc4cnc(N[C@@H]5CC[C@@H](C(N)=O)C5)nc43)ccc2n1C` [A183, (1R,3R)-3-[3-(1,2-dimethyl-1H-benzimidazol-5-yl)-3H-[1,2,3]triazolo[4,5-d]-pyrimidin-5-ylamino]-cyclopentanecarboxylic acid amide], the IC50 on GSK3α(h), at GCN2 [1] and on GSK3β(h) was below 1000 nM each time.
Consider `NC(=O)[C@@H]1CC[C@@H](Nc2ncc3nnn(-c4ccc5ncccc5n4)c3n2)C1` [A194, (1R,3R)-3-(3-[1,5]naphthyridin-2-yl-3H-[1,2,3]triazolo[4,5-d]pyrimidin-5-ylamino)-cyclopentanecarboxylic acid amide], for which the IC50 on GSK3α(h), against GCN2 [1] and on GSK3β(h) was below 1000 nM each time.
Consider `COc1ccc(-n2nnc3cnc(N[C@@H]4CCN(C(N)=O)C4)nc32)cc1` [A285, (R)-3-[3-(4-Methoxy-phenyl)-3H-[1,2,3]triazolo[4,5-d]pyrimidin-5-ylamino]-pyrrolidine-1-carboxylic acid amide], for which the IC50 is below 1000 nM on GSK3α(h), below 1000 nM on GCN2 [1] and 1000 to 5000 nM at GSK3β(h).
With `COc1ccc(-n2nnc3cnc(N[C@@H]4CC[C@H](C(N)=O)C4)nc32)cc1` [A136, (1S,3R)-3-[3-(4-methoxy-phenyl)-3H-[1,2,3]triazolo[4,5-d]pyrimidin-5-ylamino]-cyclopentanecarboxylic acid amide], the IC50 on GSK3α(h), against GCN2 [1] and on GSK3β(h) was below 1000 nM in each case.
For `COCCn1cc(-n2nnc3cnc(N[C@@H]4CC[C@@H](C(N)=O)C4)nc32)cn1` [A159, (1R,3R)-3-{3-[1-(2-methoxy-ethyl)-1H-pyrazol-4-yl]-3H-[1,2,3]triazolo[4,5-d]-pyrimidin-5-ylamino}-cyclopentanecarboxylic acid amide], the IC50 at GSK3α(h), against GCN2 [1] and on GSK3β(h) was below 1000 nM in each case.
Take `CN(C)CCC(=O)N1CC[C@@H](Nc2ncc3nnn(-c4ccc(-c5cnn(C)c5)cc4)c3n2)C1` [A130, 3-dimethylamino-1-((R)-3-{3-[4-(1-methyl-1H-pyrazol-4-yl)-phenyl]-3H-[1,2,3]triazolo[4,5-d]pyrimidin-5-ylamino}-pyrrolidin-1-yl)-propan-1-one]: the IC50 at GSK3α(h) is below 1000 nM; at GCN2 [2], 5000 to 10000 nM; on GCN2 [1] it was below 1000 nM.
As for `COc1ccc(-n2nnc3cnc(N[C@@H]4CC[C@@H](C(N)=O)C4)nc32)cc1` [A140, (1R,3R)-3-[3-(4-methoxy-phenyl)-3H-[1,2,3]triazolo[4,5-d]pyrimidin-5-ylamino]-cyclopentanecarboxylic acid amide], the IC50 was below 1000 nM on GSK3α(h), 1000 to 5000 nM at GCN2 [2] and below 1000 nM against GCN2 [1].
Turning to `COc1ccc(-n2nnc3cnc(N[C@@H]4CC[C@@H](C(=O)N5CCN(C)CC5)C4)nc32)cc1` [A241, {(1R,3R)-3-[3-(4-methoxy-phenyl)-3H-[1,2,3]triazolo[4,5-d]pyrimidin-5-ylamino]-cyclopentyl}-(4-methyl-piperazin-1-yl)-methanone], the IC50 is below 1000 nM at GSK3α(h), 1000 to 5000 nM at GCN2 [2] and below 1000 nM on GCN2 [1].
For `COc1ccc(-n2nnc3cnc(N[C@@H]4CC[C@@H](CO)C4)nc32)cc1` [A114, {(1R,3R)-3-[3-(4-methoxy-phenyl)-3H-[1,2,3]triazolo[4,5-d]pyrimidin-5-ylamino]-cyclopentyl}-methanol], the figures for the IC50 on GSK3α(h), against GCN2 [2] and against GCN2 [1] were below 1000 nM, 1000 to 5000 nM and below 1000 nM, respectively.
For `COc1ccc(-n2nnc3cnc(N[C@@H]4CC[C@H](CO)C4)nc32)cc1` [A112, {(1S,3R)-3-[3-(4-methoxy-phenyl)-3H-[1,2,3]triazolo[4,5-d]pyrimidin-5-ylamino]-cyclopentyl}-methanol], the IC50 is below 1000 nM at GSK3α(h), 1000 to 5000 nM at GCN2 [2] and below 1000 nM against GCN2 [1].
Turning to `O[C@@H]1CC[C@@H](Nc2ncc3nnn(-c4ccc(-c5cnn(CCN6CCCC6)c5)cc4)c3n2)C1` [A213, (1R,3R)-3-(3-{4-[1-(2-pyrrolidin-1-yl-ethyl)-1H-pyrazol-4-yl]-phenyl}-3H-[1,2,3]triazolo[4,5-d]pyrimidin-5-ylamino)-cyclopentanol], the results for the IC50 on GSK3α(h), at GCN2 [2] and against GCN2 [1] were below 1000 nM, 1000 to 5000 nM and below 1000 nM, respectively.
Take `NC(=O)[C@@H]1CC[C@@H](Nc2ncc3nnn(-c4ccc5ncccc5c4)c3n2)C1` [A190, (1R,3R)-3-(3-quinolin-6-yl-3H-[1,2,3]triazolo[4,5-d]pyrimidin-5-ylamino)-cyclopentanecarboxylic acid amide]: the IC50 at GSK3α(h) is below 1000 nM; against GCN2 [2], 5000 to 10000 nM; against GCN2 [1] it was below 1000 nM.
For the compound `NC(=O)[C@H]1CC[C@@H](Nc2ncc3nnn(-c4ccc(-c5cnn(CCN6CCCC6)c5)cc4)c3n2)C1` [A216, (1S,3R)-3-(3-{4-[1-(2-pyrrolidin-1-yl-ethyl)-1H-pyrazol-4-yl]-phenyl}-3H-[1,2,3]triazolo[4,5-d]pyrimidin-5-ylamino)-cyclopentanecarboxylic acid amide], the IC50 on GSK3α(h) is below 1000 nM; on GCN2 [2] it was 1000 to 5000 nM; at GCN2 [1], below 1000 nM.
In the case of `N[C@H]1CC[C@H](Nc2ncc3nnn(-c4ccc(-c5cnn(CCn6cccn6)c5)cc4)c3n2)CC1` [A215, N-(3-{4-[1-(2-pyrazol-1-yl-ethyl)-1H-pyrazol-4-yl]-phenyl}-3H-[1,2,3]triazolo[4,5-d]pyrimidin-5-yl)-cyclohexane-1,4-diamine], the IC50 is below 1000 nM on GSK3α(h), 5000 to 10000 nM against GCN2 [2] and below 1000 nM against GCN2 [1].
Consider `NC1CC[C@@H](Nc2ncc3nnn(-c4ccc(-c5cnn(CCO)c5)cc4)c3n2)C1` (stereo in doubt) [A257, 2-(4-{4-[5-((1R,3S)-3-amino-cyclopentylamino)-[1,2,3]triazolo[4,5-d]pyrimidin-3-yl]-phenyl}-pyrazol-1-yl)-ethanol], for which the IC50 on GSK3α(h) is below 1000 nM; on GCN2 [2], 5000 to 10000 nM; on GCN2 [1] it was below 1000 nM.
As to `COCCn1cc(-c2ccc(-n3nnc4cnc(N[C@@H]5CC[C@@H](N)C5)nc43)cc2)cn1` [A123, (1R,3R)—N-(3-{4-[1-(2-methoxy-ethyl)-1H-pyrazol-4-yl]-phenyl}-3H-[1,2,3]triazolo[4,5-d]pyrimidin-5-yl)-cyclopentane-1,3-diamine], the IC50 on GSK3α(h), at GCN2 [2] and against GCN2 [1] was below 1000 nM throughout.
